What was measured:
Settings in all cases: 48 h
[1] = tested on: NOMO1; assay: AUC of viability dose-response curve (% viability x log10 dose units); higher = less sensitive
Outline: (§1)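 Viability of medium-adapted leukemia cells was measured by CellTiter-Glo One luminescence after 48 h at 37°C with library compounds in DMSO. Doses were 11 threefold steps from 47 μM to 0.79 nM, in 1536-well plates at 500 or 1000 cells/well. Signals were normalised per plate to DMSO and cell-free wells and fitted with a four-parameter log-logistic model on log10 dose. Area under the curve was integrated by trapezoidal rule, with curves exceeding full viability scaled and failed quality-control curves removed.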

[2] = tested on: SEM cells; assay: as above
Outline: as §1

[3] = tested on: P12-Ichikawa; assay: as above
Outline: as §1

[4] = tested on: NOMO1; assay: cell viability relative to DMSO control; higher = less cytotoxic
Outline: (§2)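 NOMO1 or SEM (500 cells/well) or P12-Ichikawa (1000 cells/well) leukemia cells were adapted for at least four passages in each medium. They were seeded in 1536-well plates (5 μl) and pin-dosed with library compounds in DMSO over an 11-point threefold series, 47 μM to 0.79 nM. CellTiter-Glo One luminescence was read after 48 h at 37°C. Viability is the per-plate percentage relative to DMSO wells, with cell-free wells as background.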

[5] = tested on: SEM cells; assay: as above
Outline: as §2

[6] = tested on: P12-Ichikawa; assay: as above
Outline: as §2

CC(C)(O)CC[C@@H](O)[C@](C)(O)[C@H]1CC[C@@]2(O)C/3=C/C(=O)[C@@H]4C[C@@H](O)[C@@H](O)C[C@]4(C)[C@H]3CC[C@]12C
AUC of viability dose-response curve
Settings	[1]	[2]	[3]
HPLM + 10% dialyzed FBS	410	434	453
RPMI 5 mM glucose + 10% FBS	421	449	444
RPMI 5 mM glucose + 10% dialyzed FBS	429	412	429

cell viability [%]
Settings	[4]	[5]	[6]
HPLM + 10% dialyzed FBS, 0.000781 µM	111	115	100
HPLM + 10% dialyzed FBS, 0.00234 µM	98.6	107	103
HPLM + 10% dialyzed FBS, 0.00702 µM	110	112	94.5
HPLM + 10% dialyzed FBS, 0.0211 µM	86.8	97.8	96.6
HPLM + 10% dialyzed FBS, 0.0632 µM	84.6	97.5	102
HPLM + 10% dialyzed FBS, 0.19 µM	98.5	110	98.4
HPLM + 10% dialyzed FBS, 0.569 µM	98	99.7	88.6
HPLM + 10% dialyzed FBS, 1.71 µM	103	103	93.6
HPLM + 10% dialyzed FBS, 5.12 µM	87.4	93.5	89.2
HPLM + 10% dialyzed FBS, 15.4 µM	94.9	89.7	89.6
HPLM + 10% dialyzed FBS, 46.1 µM	81.7	94.7	87.4
RPMI 5 mM glucose + 10% FBS, 0.000781 µM	87.9	96.3	90.7
RPMI 5 mM glucose + 10% FBS, 0.00234 µM	97.3	93.8	96.3
RPMI 5 mM glucose + 10% FBS, 0.00702 µM	86.9	98.3	93.4
RPMI 5 mM glucose + 10% FBS, 0.0211 µM	83.8	93.4	96.3
RPMI 5 mM glucose + 10% FBS, 0.0632 µM	93.2	102	86.7
RPMI 5 mM glucose + 10% FBS, 0.19 µM	91.9	98.8	104
RPMI 5 mM glucose + 10% FBS, 0.569 µM	91.2	85.2	92.2
RPMI 5 mM glucose + 10% FBS, 1.71 µM	88.6	97.7	94.1
RPMI 5 mM glucose + 10% FBS, 5.12 µM	80	96.4	88
RPMI 5 mM glucose + 10% FBS, 15.4 µM	84.2	87	86
RPMI 5 mM glucose + 10% FBS, 46.1 µM	83.1	79.8	96.8
RPMI 5 mM glucose + 10% dialyzed FBS, 0.000781 µM	108	104	95
RPMI 5 mM glucose + 10% dialyzed FBS, 0.00234 µM	110	106	90.6
RPMI 5 mM glucose + 10% dialyzed FBS, 0.00702 µM	108	103	90.8
RPMI 5 mM glucose + 10% dialyzed FBS, 0.0211 µM	95.2	80.2	89
RPMI 5 mM glucose + 10% dialyzed FBS, 0.0632 µM	105	81.7	94.6
RPMI 5 mM glucose + 10% dialyzed FBS, 0.19 µM	91.6	92.8	89.2
RPMI 5 mM glucose + 10% dialyzed FBS, 0.569 µM	105	77.3	88.8
RPMI 5 mM glucose + 10% dialyzed FBS, 1.71 µM	90	104	86.9
RPMI 5 mM glucose + 10% dialyzed FBS, 5.12 µM	86.2	83.4	91.2
RPMI 5 mM glucose + 10% dialyzed FBS, 15.4 µM	88.1	94.2	83.3
RPMI 5 mM glucose + 10% dialyzed FBS, 46.1 µM	94.4	74.6	89.4

CN[C@@H](C)[C@H]1[C@H](O)C[C@@]2(C)[C@@H]3CC[C@H]4C(C)(C)[C@@H](NC)CC[C@@]45C[C@@]35CC[C@]12C
AUC of viability dose-response curve
Settings	[1]	[2]	[3]
HPLM + 10% dialyzed FBS	445	376	464
RPMI 5 mM glucose + 10% FBS	454	392	450
RPMI 5 mM glucose + 10% dialyzed FBS	445	399	425

cell viability [%]
Settings	[4]	[5]	[6]
HPLM + 10% dialyzed FBS, 0.000781 µM	81.4	73.4	92.3
HPLM + 10% dialyzed FBS, 0.00234 µM	102	83.6	97.3
HPLM + 10% dialyzed FBS, 0.00702 µM	81.7	53.9	84.8
HPLM + 10% dialyzed FBS, 0.0211 µM	108	85.5	98.4
HPLM + 10% dialyzed FBS, 0.0632 µM	89.8	90.1	96.5
HPLM + 10% dialyzed FBS, 0.19 µM	93.7	95.8	100
HPLM + 10% dialyzed FBS, 0.569 µM	105	83.2	98.8
HPLM + 10% dialyzed FBS, 1.71 µM	95.2	98.4	102
HPLM + 10% dialyzed FBS, 5.12 µM	82.6	42.5	103
HPLM + 10% dialyzed FBS, 15.4 µM	105	93.4	97
HPLM + 10% dialyzed FBS, 46.1 µM	70.9	66.3	96.3
RPMI 5 mM glucose + 10% FBS, 0.000781 µM	85.4	81.8	95.4
RPMI 5 mM glucose + 10% FBS, 0.00234 µM	94.5	83.2	89
RPMI 5 mM glucose + 10% FBS, 0.00702 µM	91.6	56	81.6
RPMI 5 mM glucose + 10% FBS, 0.0211 µM	94.3	95.2	94.4
RPMI 5 mM glucose + 10% FBS, 0.0632 µM	102	82.7	103
RPMI 5 mM glucose + 10% FBS, 0.19 µM	102	83.3	98.8
RPMI 5 mM glucose + 10% FBS, 0.569 µM	95	109	89.3
RPMI 5 mM glucose + 10% FBS, 1.71 µM	94.8	68.9	105
RPMI 5 mM glucose + 10% FBS, 5.12 µM	93.9	40	81.9
RPMI 5 mM glucose + 10% FBS, 15.4 µM	95.7	100	105
RPMI 5 mM glucose + 10% FBS, 46.1 µM	92.5	103	91.9
RPMI 5 mM glucose + 10% dialyzed FBS, 0.000781 µM	86.4	72.7	85
RPMI 5 mM glucose + 10% dialyzed FBS, 0.00234 µM	87.8	75.4	91
RPMI 5 mM glucose + 10% dialyzed FBS, 0.00702 µM	101	66.4	83.8
RPMI 5 mM glucose + 10% dialyzed FBS, 0.0211 µM	99.6	83.4	90.1
RPMI 5 mM glucose + 10% dialyzed FBS, 0.0632 µM	104	87.3	93.2
RPMI 5 mM glucose + 10% dialyzed FBS, 0.19 µM	95.6	99.2	98.8
RPMI 5 mM glucose + 10% dialyzed FBS, 0.569 µM	93.1	109	89.3
RPMI 5 mM glucose + 10% dialyzed FBS, 1.71 µM	91.7	93.9	92.6
RPMI 5 mM glucose + 10% dialyzed FBS, 5.12 µM	86.1	44.3	81.7
RPMI 5 mM glucose + 10% dialyzed FBS, 15.4 µM	99.6	99.4	93.8
RPMI 5 mM glucose + 10% dialyzed FBS, 46.1 µM	72.1	89.8	79.4

C[C@](Cc1c[nH]c2ccccc12)(NC(=O)OC1C2CC3CC(C2)CC1C3)C(=O)NC[C@H](NC(=O)CCC(=O)O)c1ccccc1 (some centres not stated)
AUC of viability dose-response curve
Settings	[1]	[2]	[3]
HPLM + 10% dialyzed FBS	455	447	469
RPMI 5 mM glucose + 10% FBS	413	433	461
RPMI 5 mM glucose + 10% dialyzed FBS	435	430	456

cell viability [%]
Settings	[4]	[5]	[6]
HPLM + 10% dialyzed FBS, 0.000781 µM	123	88.1	112
HPLM + 10% dialyzed FBS, 0.00234 µM	94	87.3	129
HPLM + 10% dialyzed FBS, 0.00702 µM	130	112	125
HPLM + 10% dialyzed FBS, 0.0211 µM	135	106	130
HPLM + 10% dialyzed FBS, 0.0632 µM	148	124	131
HPLM + 10% dialyzed FBS, 0.19 µM	142	129	128
HPLM + 10% dialyzed FBS, 0.569 µM	134	121	138
HPLM + 10% dialyzed FBS, 1.71 µM	145	123	132
HPLM + 10% dialyzed FBS, 5.12 µM	157	116	122
HPLM + 10% dialyzed FBS, 15.4 µM	154	126	129
HPLM + 10% dialyzed FBS, 46.1 µM	141	120	122
RPMI 5 mM glucose + 10% FBS, 0.000781 µM	114	96.8	–
RPMI 5 mM glucose + 10% FBS, 0.00234 µM	128	82.8	–
RPMI 5 mM glucose + 10% FBS, 0.00702 µM	120	110	–
RPMI 5 mM glucose + 10% FBS, 0.0211 µM	126	121	–
RPMI 5 mM glucose + 10% FBS, 0.0632 µM	120	105	–
RPMI 5 mM glucose + 10% FBS, 0.19 µM	127	149	–
RPMI 5 mM glucose + 10% FBS, 0.569 µM	125	148	–
RPMI 5 mM glucose + 10% FBS, 1.71 µM	126	135	–
RPMI 5 mM glucose + 10% FBS, 5.12 µM	151	128	–
RPMI 5 mM glucose + 10% FBS, 15.4 µM	153	125	–
RPMI 5 mM glucose + 10% FBS, 46.1 µM	147	132	–
RPMI 5 mM glucose + 10% dialyzed FBS, 0.000781 µM	106	113	–
RPMI 5 mM glucose + 10% dialyzed FBS, 0.00234 µM	123	91	–
RPMI 5 mM glucose + 10% dialyzed FBS, 0.00702 µM	120	121	–
RPMI 5 mM glucose + 10% dialyzed FBS, 0.0211 µM	132	126	–
RPMI 5 mM glucose + 10% dialyzed FBS, 0.0632 µM	132	118	–
RPMI 5 mM glucose + 10% dialyzed FBS, 0.19 µM	133	137	–
RPMI 5 mM glucose + 10% dialyzed FBS, 0.569 µM	153	134	–
RPMI 5 mM glucose + 10% dialyzed FBS, 1.71 µM	129	142	–
RPMI 5 mM glucose + 10% dialyzed FBS, 5.12 µM	139	136	–
RPMI 5 mM glucose + 10% dialyzed FBS, 15.4 µM	147	168	–
RPMI 5 mM glucose + 10% dialyzed FBS, 46.1 µM	153	123	–
